Consider four molecules from patent US7776827B2 (ImmuneRegen Biosciences, Inc., priority 2007, dated 2010).

Assay type in all cases: cell-based
The subject of data set [1] is CFU-Mk (platelet precursors). Put plainly: Colony forming unit (CFU) assay, human bone marrow cells (Example 6). Particulars: in the presence of substance P. From the text:
(§1) As stem cells differentiate in response to growth factors, they form a colony of cells with distinct morphologies that can be visualized using a microscope. This study examined the formation of three different progenitor cell populations, erythrocytes, platelets and granulocytes/macrophages.
(§2) Bone marrow aspirates were obtained from three healthy donors between 18 and 35 years of age following appropriate guidelines and protocols. Bone marrow mononuclear cells were isolated using a Ficoll-Hypaque density gradient, separating red blood cells from the others. Cells from each donor were processed independently and used for setting up individual experiments to assess the effects, if any, of donor variability.
Cells (1×10^5) were plated in duplicate onto 35 mm tissue culture plates for each condition tested and set up as described in Rameshwar et al. 1993, Blood. 81:2, 391-398. Erythroid and granulocyte/macrophage cultures were plated using methylcellulose and megakaryocyte cultures (platelet precursors) used a collagen-based support (StemCell Technologies, Vancouver, Canada, catalogue #04973). […] CP 99,994 (Pfizer) was used as a neurokinin-1 receptor antagonist and SR 48968 (Sanofi) was used as a neurokinin-2 receptor antagonist.
Cultures were set up with limited cytokines and growth factors which would promote differentiation of one progenitor per plate. […]

Data set [2] concerns human bone marrow-derived hematopoietic cell populations. Description: CFC differentiation and ATP proliferation assays, overall statements (Example 4). As to the method: The compound was dissolved in 1 ml of Iscove's Modified Dulbecco's Medium (IMDM) and a serial dose response prepared in single log doses so that the final dose in culture ranged from 1 nM to 1×10^−16 M. All working dilutions were performed in IMDM.
Starting with human bone marrow aspirate, the mononuclear cell (MNC) fraction was separated from the whole bone marrow using Ficoll-Paque density gradient centrifugation. […] The cell concentration was adjusted so that the final cell concentration in culture was 10,000 cells/well.
Human bone marrow MNC was dissolved in IMDM and cultured at a concentration of 10,000 cell/well in a CAMEO™-96 Master Mix (HemoGenix, Inc., Colorado Springs, Colo.). […]
Prior to processing all 96-well plates, the total colony counts/well were manually enumerated by microscopy. The mean, standard deviation and percent coefficient of variation was calculated for all groups, transposed and plotted. The intracellular ATP (iATP) concentration was measured after manual enumeration. The output of the luminometer is non-standardized Relative Luminescence Units (RLU). […] This allowed the RLU values to be automatically calculated into standardized ATP (μM) units. For both the RLU and ATP values derived from each well, the luminometer software calculated the mean, standard deviation and percent coefficient of variation.

In data set [3] the test system is seven human-derived hematopoietic cell populations. Description: CFC assay, three donors, overall statements (Example 5). The following applies: highest doses (1 nM). The procedure: Compound was dissolved in 1 ml of Iscove's Modified Dulbecco's Medium (IMDM) and a serial dose response was prepared in single log doses so that the final dose in culture ranged from 1 nanoMolar (nM) to 1×10^−16 M. All working dilutions were performed in IMDM. Cell cultures from each donor were started at different times and a fresh solution of HOMSPERA® was prepared for each individual experiment.
Starting with human bone marrow aspirate, the mononuclear cell (MNC) fraction from each aspirate was separated from whole bone marrow using Ficoll-Paque density gradient centrifugation.
The colony-forming cell (CFC) assay was performed using optimal growth factor/cytokine concentrations. The reagents and conditions were similar to those used in Example 4, except that no ATP measurements were performed. The MNC fraction from each bone marrow donor was dissolved in IMDM and cultured at a concentration of 5,000 cells/well in a Culture Master Mix (HemoGenix, Inc., Colorado Springs, Colo.). […]
The mean, standard deviation and percent coefficient of variation was calculated for all groups, transposed and plotted as a function of donor. The percent from control values were calculated and also plotted as a function of donor. […]

Data set [4] has as its system CFU-E. Description: Colony forming unit (CFU) assay, human bone marrow cells (Example 6). Particulars: FIG. 2; control = zero level.
From the text: as §1, §2
(§3) Cells (1×10^5) were plated in duplicate onto 35 mm tissue culture plates for each condition tested and set up as described in Rameshwar et al. 1993, Blood. 81:2, 391-398. Erythroid and granulocyte/macrophage cultures were plated using methylcellulose and megakaryocyte cultures (platelet precursors) used a collagen-based support (StemCell Technologies, Vancouver, Canada, catalogue #04973). […] CP 99,994 (Pfizer) was used as a neurokinin-1 receptor antagonist and SR 48968 (Sanofi) was used as a neurokinin-2 receptor antagonist. […]

The test system of data set [5] is BFU-E. The description is as above. The following applies: FIG. 1; control = zero level.
From the text: as §1, §2, §3

For `COc1ccccc1CN[C@H]1CCCN[C@H]1c1ccccc1` [CP-99,994], the “effect of receptor antagonist on substance P stimulation of platelet colony formation” value in data set [1] is “blocks the stimulatory activity of substance P”.

In the case of `CC(C)C[C@H](NC(=O)CN(C)C(=O)[C@H](Cc1ccccc1)NC(=O)[C@H](Cc1ccccc1)NC(=O)[C@H](CCC(N)=O)NC(=O)[C@H](CCC(N)=O)NC(=O)[C@@H]1CCCN1C(=O)[C@H](CCCCN)NC(=O)[C@@H]1CCCN1C(=O)[C@@H](N)CCCNC(=N)N)C(=O)N[C@@H](CCS(C)(=O)=O)C(N)=O` [HOMSPERA®], the toxicity entry in data set [2] (B-CFC and T-CFC, levels tested) is recorded as “do not demonstrate toxicity at the levels tested”; in data set [3], “no apparent toxicity at the highest doses”. For the same molecule, in data set [2] (most of populations, 14 days, 1 nM to 1×10^−16 M), the cytotoxicity result was “apparent absence of distinct cytotoxicity”. Regarding `CC(=O)NC1(c2ccccc2)CCN(CC[C@H](CN(C)C(=O)c2ccccc2)c2ccc(Cl)c(Cl)c2)CC1` [SR48968], the “effect of receptor antagonist on substance P stimulation of platelet colony formation” value in data set [1] was “showed no effect on substance P activity in enhancing platelet colony formation”. “Arg Pro Lys Pro Gln Gln Phe Phe Gly Leu Met [substance P]”: the “CFU-E colony formation, enhancement from control values” in data set [4] is recorded as “about 70%”. The “BFU-E colony formation, increase from control values” in data set [5] is recorded as approximately 60%.
